For assay [1], the target named is human recombinant LPA1 Lysophospholipid receptor (Homo sapiens, UniProt Q92633). Description: Calcium flux assay using FLIPR, LPA1 antagonist activity. The class given is cell-based. The following applies: for IC50: ChemiScreen Calcium-optimized stable cell line, antagonist mode, inhibition of agonist-induced calcium flux. On the procedure: (§1) Calcium Flux Assay Using Fluorometric Imaging Plate Reader (FLIPR)
Cell Culture Conditions: The ChemiScreen Calcium-optimized stable cell line containing the human recombinant LPA1 Lysophospholipid receptor was purchased from Chemicon International, Inc./Millipore. The cells were cultured in DMEM-high glucose supplemented with 10% fetal bovine serum, 2 mM glutamine, 100 U/mL penicillin/100 μg/mL streptomycin, 1× non-essential amino acids, 10 mM HEPES and 0.25 mg/mL Geneticin. Cells were harvested with trypsin-EDTA and counted using ViaCount reagent. The cell suspension volume was adjusted to 2.0×10^5 cells/mL with complete growth media. Aliquots of 50 μL were dispensed into 384 well black/clear tissue culture treated plates (BD) and the microplates were placed in a 37° C. incubator overnight. The following day plates were used in the assay.
(§2) Dye Loading and Assay: Loading Buffer (FLIPR Calcium-4, Molecular Devices) was prepared by dissolving the contents of one bottle into 100 mL Hank's Balanced Salt Solution containing 20 mM HEPES and 2.5 mM probenecid. Plates were loaded onto Biotek plate washer and growth media was removed and replaced with 20 μL of Hank's Balanced Salt Solution containing 20 mM HEPES and 2.5 mM probenecid, followed by 25 μL of Loading Buffer. The plates were then incubated for 30 minutes at 37° C.
During the incubation, test compounds were prepared by adding 90 μL of HBSS/20 mM HEPES/0.1% BSA buffer to 2 μL of serially diluted compounds. To prepare serial dilutions, 10 mM stocks of compounds were prepared in 100% DMSO.
After incubation, both the cell and “assay” plates were brought to the FLIPR and 20 μL of the diluted compounds were transferred to the cell plates by the FLIPR. Compound addition was monitored by FLIPR to detect any agonist activity of the compounds. Plates were then incubated for 30 minutes at room temperature protected from light. […] During the assay, fluorescence readings were taken simultaneously from all 384 wells of the cell plate every 1.5 seconds. Five readings were taken to establish a stable baseline, then 20 μL of sample was rapidly (30 μL/sec) and simultaneously added to each well of the cell plate. The fluorescence was continuously monitored before, during and after sample addition for a total elapsed time of 100 seconds. Responses (increase in peak fluorescence) in each well following agonist addition was determined. The initial fluorescence reading from each well, prior to ligand stimulation, was used as zero baseline value for the data from that well. The responses were expressed as % inhibition of the buffer control.
Background: Calcium flux is commonly read through the fluorescence of an indicator in the cells.

The next assay deals with T1, LPA3 (Homo sapiens, UniProt Q9UBY5).
T1 sequence (Q9UBY5 1-353): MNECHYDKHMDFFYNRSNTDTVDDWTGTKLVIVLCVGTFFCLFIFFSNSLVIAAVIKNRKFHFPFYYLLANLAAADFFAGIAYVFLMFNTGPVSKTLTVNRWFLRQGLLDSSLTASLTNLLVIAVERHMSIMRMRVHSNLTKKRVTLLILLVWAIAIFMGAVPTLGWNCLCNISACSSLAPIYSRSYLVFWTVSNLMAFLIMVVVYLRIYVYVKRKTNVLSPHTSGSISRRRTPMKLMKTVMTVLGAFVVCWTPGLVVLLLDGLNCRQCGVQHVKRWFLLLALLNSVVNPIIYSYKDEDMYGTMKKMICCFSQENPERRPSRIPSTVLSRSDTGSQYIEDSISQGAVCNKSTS
Description: Calcium flux assay using FLIPR, LPA3 antagonist activity. The class given is cell-based. The following applies: for IC50: antagonist activity. The protocol: as §1, §2
During the incubation, test compounds were prepared by adding 90 μL of HBSS/20 mM HEPES/0.1% BSA buffer to 2 μL of serially diluted compounds. To prepare serial dilutions, 10 mM stocks of compounds were prepared in 100% DMSO. The compound dilution plate was set up as follows: well #1 received 29 μL of stock compound and 31 μL DMSO; wells 2-10 received 40 μL of DMSO; mixed and transferred 20 μL of solution from well #1 into well #2; continued with 1:3 serial dilutions out 10 steps; transferred 2 μL of diluted compound into duplicate wells of 384 well “assay plate” and then added the 90 μL of buffer.
After incubation, both the cell and “assay” plates were brought to the FLIPR and 20 μL of the diluted compounds were transferred to the cell plates by the FLIPR. Compound addition was monitored by FLIPR to detect any agonist activity of the compounds. Plates were then incubated for 30 minutes at room temperature protected from light. After the incubation, plates were returned to the FLIPR and 20 μL of 4.5× concentrated agonist was added to the cell plates. During the assay, fluorescence readings were taken simultaneously from all 384 wells of the cell plate every 1.5 seconds. Five readings were taken to establish a stable baseline, then 20 μL of sample was rapidly (30 μL/sec) and simultaneously added to each well of the cell plate. The fluorescence was continuously monitored before, during and after sample addition for a total elapsed time of 100 seconds. Responses (increase in peak fluorescence) in each well following agonist addition was determined. The initial fluorescence reading from each well, prior to ligand stimulation, was used as zero baseline value for the data from that well. The responses were expressed as % inhibition of the buffer control.

human recombinant LPA1 Lysophospholipid receptor, sequence (Q92633 whole entry): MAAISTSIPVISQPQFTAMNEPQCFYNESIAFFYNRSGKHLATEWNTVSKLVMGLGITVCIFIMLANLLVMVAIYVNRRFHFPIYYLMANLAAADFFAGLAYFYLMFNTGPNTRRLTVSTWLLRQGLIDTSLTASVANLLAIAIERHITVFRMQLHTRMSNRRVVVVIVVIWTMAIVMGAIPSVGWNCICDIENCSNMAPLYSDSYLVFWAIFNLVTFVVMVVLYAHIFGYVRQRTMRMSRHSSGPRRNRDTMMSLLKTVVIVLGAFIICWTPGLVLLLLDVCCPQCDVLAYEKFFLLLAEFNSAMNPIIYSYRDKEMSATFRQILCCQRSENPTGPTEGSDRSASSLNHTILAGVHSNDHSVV

The term IC50 denotes the point on the concentration scale where inhibition reaches its midpoint. Regarding `CC[C@@H](C)OC(=O)Nc1c(C)nnn1-c1ccc(-c2ccc(C3(C(=O)O)CC3)cc2)cc1` [Example 10, 1-{4′-[5-((R)-sec-Butoxycarbonylamino)-4-methyl-[1,2,3]triazol-1-yl]-biphenyl-4-yl}-cyclopropanecarboxylic acid], the concentration for half-maximal inhibition (IC50) was 0.398 µM in assay [1] and greater than 30 µM at LPA3.

`Cc1nnn(-c2ccc(-c3ccc(C4(C(=O)O)CC4)cc3)cc2)c1NC(=O)OC(C)C` [Example 11, 1-[4′-(5-iso-Propoxycarbonylamino-4-methyl-[1,2,3]triazol-1-yl)-biphenyl-4-yl]-cyclopropanecarboxylic acid]: the IC50 (in assay [1]; at LPA3) was greater than 30 µM each time.

Turning to `Cc1nnn(-c2ccc(-c3ccc(C4(C(=O)O)CC4)cc3)cc2)c1NC(=O)OC(C)C1CC1` (stereo not drawn) [Example 12, 1-{4′-[5-(1-Cyclopropyl-ethoxycarbonylamino)-4-methyl-[1,2,3]triazol-1-yl]-biphenyl-4-yl}-cyclopropanecarboxylic acid], the 50% inhibitory concentration (IC50) in assay [1] is 0.134 µM; at LPA3, greater than 30 µM.

As for `Cc1nnn(-c2ccc(-c3ccc(C4(C(=O)O)CC4)cc3)cc2)c1NC(=O)OC(C)C1CCC1` (stereo not drawn) [Example 13, 1-{4′-[5-(1-Cyclobutyl-ethoxycarbonylamino)-4-methyl-[1,2,3]triazol-1-yl]-biphenyl-4-yl}-cyclopropanecarboxylic acid], the half-inhibitory concentration (IC50) in assay [1] is 0.161 µM; at LPA3, greater than 30 µM.

As to `Cc1nnn(-c2ccc(-c3ccc(C4(C(=O)O)CC4)cc3)cc2)c1NC(=O)OC(C)(C)C` [Example 14, 1-[4′-(5-tert-Butoxycarbonylamino-4-methyl-[1,2,3]triazol-1-yl)-biphenyl-4-yl]-cyclopropanecarboxylic acid], the IC50 was 0.985 µM in assay [1] and greater than 30 µM on LPA3.

A word on the inhibition: it is the change of the read-out against control, counted positive when it falls. Consider `Cc1nnn(-c2ccc(-c3ccc(C4(C(=O)O)CC4)c(F)c3)cc2)c1NC(=O)O[C@H](C)c1ccccc1` [Example 15, 1-{3-Fluoro-4′-[4-methyl-5-((R)-1-phenyl-ethoxycarbonylamino)-[1,2,3]triazol-1-yl]-biphenyl-4-yl}-cyclopropanecarboxylic acid], for which the 50% inhibitory concentration (IC50) in assay [1] is 0.022 µM. Moreover, the inhibition at 30 µM on LPA3 came out at 46.3%.

With `COc1cc(-c2ccc(C3(C(=O)O)CC3)cc2)ccc1-n1nnc(C)c1NC(=O)O[C@H](C)c1ccccc1` [Example 16, 1-{3′-Methoxy-4′-[4-methyl-5-((R)-1-phenyl-ethoxycarbonylamino)-[1,2,3]triazol-1-yl]-biphenyl-4-yl}-cyclopropanecarboxylic acid], the values for the IC50 (in assay [1]; at LPA3) were 0.245 µM and greater than 30 µM, respectively.

In the case of `CCc1nnn(-c2ccc(-c3ccc(C4(C(=O)O)CC4)cc3)cc2)c1NC(=O)O[C@H](C)c1ccccc1` [Example 17, 1-{4′-[4-Ethyl-5-((R)-1-phenyl-ethoxycarbonylamino)-[1,2,3]triazol-1-yl]-biphenyl-4-yl}-cyclopropanecarboxylic acid], the IC50 in assay [1] amounted to 0.043 µM; on LPA3, 21.7 µM. Also, the inhibition at 30 µM at LPA3 was 63.7%.

As for `CCc1nnn(-c2ccc(-c3ccc(CC(=O)O)cc3)cc2)c1NC(=O)O[C@H](C)c1ccccc1` [Example 18, {4′-[4-Ethyl-5-((R)-1-phenyl-ethoxycarbonylamino)-[1,2,3]triazol-1-yl]-biphenyl-4-yl}-acetic acid], in assay [1], the inhibition at 30 µM is 79.8% and the IC50 amounted to 1.23 µM. Also, the IC50 at LPA3 was greater than 30 µM.

As to `CCc1nnn(-c2ccc(-c3ccc(C4(C(=O)O)CC4)cc3)cc2)c1NC(=O)O[C@H](C)c1cccc(C(F)(F)F)c1` [Example 19, 1-(4′-{4-Ethyl-5-[(R)-1-(3-trifluoromethyl-phenyl)-ethoxycarbonylamino]-[1,2,3]triazol-1-yl}-biphenyl-4-yl)-cyclopropanecarboxylic acid], the IC50 was determined as 0.412 µM in assay [1] and 4.82 µM on LPA3.

Turning to `CCc1nnn(-c2ccc(-c3ccc(CC(=O)O)cc3)cc2)c1NC(=O)O[C@H](C)c1cccc(C(F)(F)F)c1` [Example 20], the inhibition at 30 µM in assay [1] stood at 58.3%; at LPA3, 72.5%. The IC50 in assay [1] is 21.2 µM; on LPA3, 14.3 µM.

In the case of `C[C@@H](OC(=O)Nc1cnnn1-c1ccc(-c2ccc(C3(C(=O)O)CC3)cc2)cc1)c1ccccc1` [Example 21, 1-{4′-[5-((R)-1-Phenyl-ethoxycarbonylamino)-[1,2,3]triazol-1-yl]-biphenyl-4-yl}-cyclopropanecarboxylic acid], the IC50 was 0.036 µM in assay [1] and greater than 30 µM on LPA3. The inhibition at 30 µM on LPA3 was 22%.

As for `C[C@@H](OC(=O)Nc1cnnn1-c1ccc(-c2ccc(CC(=O)O)cc2)cc1)c1ccccc1` [Example 22, {4′-[5-((R)-1-Phenyl-ethoxycarbonylamino)-[1,2,3]triazol-1-yl]-biphenyl-4-yl}-acetic acid], the IC50 (in assay [1]; at LPA3) was greater than 30 µM each time.

For `Cc1nnn(-c2ccc(-c3ccc(C(C)(C)C(=O)O)cc3)cc2)c1NC(=O)O[C@H](C)c1ccccc1` [Example 23, 2-Methyl-2-{4′-[4-methyl-5-((R)-1-phenyl-ethoxycarbonylamino)-[1,2,3]triazol-1-yl]-biphenyl-4-yl}-propionic acid], in assay [1], the inhibition at 30 µM worked out at 80.9% and the IC50 was 0.796 µM. For the same molecule, the IC50 at LPA3 is greater than 30 µM.

With `Cc1nnn(-c2ccc(-c3cccc(C4(C(=O)O)CC4)c3)cc2)c1NC(=O)O[C@H](C)c1ccccc1` [Example 24, (R)-1-(4′-(4-Methyl-5-((1-phenylethoxy)carbonylamino)-1H-1,2,3-triazol-1-yl)biphenyl-3-yl)cyclopropanecarboxylic acid], the IC50 (in assay [1]; on LPA3) was greater than 30 µM in each case.

As for `Cc1nnn(-c2cccc(-c3ccc(C4(C(=O)O)CC4)cc3)c2)c1NC(=O)O[C@H](C)c1ccccc1` [Example 25, 1-{3′-[4-Methyl-5-((R)-1-phenyl-ethoxycarbonylamino)-[1,2,3]triazol-1-yl]-biphenyl-4-yl}-cyclopropanecarboxylic acid], the IC50 (in assay [1]; at LPA3) was greater than 30 µM in each case.

On to `Cc1nnn(-c2cccc(-c3ccc(CC(=O)O)cc3)c2)c1NC(=O)O[C@H](C)c1ccccc1` [Example 26, {3′-[4-Methyl-5-((R)-1-phenyl-ethoxycarbonylamino)-[1,2,3]triazol-1-yl]-biphenyl-4-yl}-acetic acid], for which the IC50 (in assay [1]; at LPA3) was greater than 30 µM in each case.

For `Cc1nnn(-c2ccc(-c3ccccc3)cc2)c1NC(=O)O[C@H](C)c1ccccc1` [Example 27, (3-Biphenyl-4-yl-5-methyl-3H-[1,2,3]triazol-4-yl)-carbamic acid (R)-1-phenyl-ethyl ester], the concentration for half-maximal inhibition (IC50) (in assay [1]; at LPA3) was greater than 30 µM throughout.
